Laboratory results published in US11596692B1 (Incyte Corporation, priority 2018, dated 2023).
Read-outs that look alike come from different tables or passages of the source.

Legend:
[1] = test system: IRF3 activation in PD-L1 high HEK293T STING reporter cell line; test: IRF3 activation in HEK293T STING reporter cells, high PD-L1; assay type: cell-based, human; conditions: for EC50: 20 hours; for Potency shift: with compound P27 (1 μM) versus no competition
Experimental: (§1) HEK293T STING reporter cell line was purchased from Invivogen and expressed low level of PD-L1. This cell line was then engineered at Incyte Research Institute to overexpress human PD-L1. Both PD-L1 high and PD-L1 low HEK293T cell lines were plated at 100,000 cells/100 μL/well in 10% fetal calf serum-containing DMEM culture medium in a 96-well flat bottom plate. Serial dilutions of PD-L1 small molecule-conjugated STING agonists were then added to the corresponding wells, and incubated for 20 hours at 37° C. In a competition study setting, 1 μM of a PD-L1 small molecule was added in the corresponding wells to compete with the binding of PD-L1 small molecule-conjugated STING agonists. At the end of the incubation, the culture supernatants were carefully removed from each well, and the amount of IRF3 activation was determined by adding Quanti-Blue substrate in accordance with the manufacturer's protocol.
(§2) 293T-Dual hSTING-R232 (ISG/KI-IFNb) cells that were generated from 293T-Dual Null (ISG/KI-IFNb) cells by stable transfection of the R232 isoform of human STING were purchased from Invivogen (Invivogen #293d-r232).
(§3) This cell line expresses an ISRE-inducible SEAP (secreted embryonic alkaline phosphatase) reporter construct, which monitors the activation of interferon regulatory factor (IRF) and its binding to ISRE (IFN-stimulated response elements). These reporter cells express low level of PD-L1. Human PD-L1 was then overexpressed in these cells through stable transfection.
(§4) These 293T-Dual hSTING-R232 reporter cells as well as293T-Dual hSTING-R232 reporter cells overexpressing huPD-L1 were treated with various concentrations of STING compounds for 20 hours. After 20 hours, interferon regulatory factor (IRF) activity was assessed by measuring SEAP levels in the supernatant using QUNTI-Blue. EC50 values were generated by curve fit in Prism software.

[2] = test system: IRF3 activation in PD-L1 low HEK293T STING reporter cell line; test: IRF3 activation in HEK293T STING reporter cells, low PD-L1; assay type: cell-based, human; conditions: 20 hours, read-out: IRF Activation EC50 (nM), Low PD-L1
Experimental: as §1, §2, §3, §4

[3] = biological target: T1, PD-L1 (Homo sapiens (Human), UniProt Q9NZQ7); test: PD-L1 surface levels on HEK293T STING reporter cells, high PD-L1; assay type: cell-based
T1 sequence (Q9NZQ7 19-290): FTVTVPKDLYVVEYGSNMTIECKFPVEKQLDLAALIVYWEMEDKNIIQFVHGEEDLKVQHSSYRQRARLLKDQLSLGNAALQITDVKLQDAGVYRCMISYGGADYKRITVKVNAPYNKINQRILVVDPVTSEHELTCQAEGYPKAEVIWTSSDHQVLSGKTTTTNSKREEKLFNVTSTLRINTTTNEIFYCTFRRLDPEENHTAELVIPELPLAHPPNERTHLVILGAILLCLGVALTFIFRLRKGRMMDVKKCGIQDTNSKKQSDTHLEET
Experimental: (§5) To determine PD-L1 expression on HEK cells after treatment of PD-L1-small molecule conjugated STING agonists, cells were harvested at 20 hours post-treatment. Single cell suspensions were then stained with phycoerythrin-conjugated anti-PD-L1 antibody (BD Bioscience), and the PD-L1 expression were then analyzed by flow cytometry. Mean fluorescence intensity was used as the relative level of surface PD-L1 expression on cells (FIG. 1 and Table 6).
(§6) Also, cells were stained with PE-conjugated anti-human PD-L1 antibody to determine surface PD-L1 expression. Cell acquisition was performed on BD LSRFortessa X-20 (BD Biosciences). Data was analyzed using FlowJo software. IC50 values were calculated using Prism Software.

[4] = biological target: T1, PD-L1; test: PD-L1 surface levels on HEK293T STING reporter cells, low PD-L1; assay type: cell-based
Experimental: as §5, §6

[5] = test system: IFNβ production in CD11b+ monocytes; test: IFN-beta induction in CD11b+ monocytes from healthy donor PBMC; assay type: cell-based, human; conditions: CD11b+ monocyte cultures, 20 hours, mean ± SEM
Experimental: (§7) CD11b^+ cells were isolated from healthy PBMCs as well as Pleural effusion samples using Miltenyi isolation kit according to manufacturer's protocol. Cells were seeded in 96 well plates at the density of 300,000 cells/wells, and then treated with various concentrations of compounds for 20 hours. After 20 hours, IFN-beta secretion levels were evaluated in the culture supernatants by MSD singleplex assay. EC50 values were calculated using Prism software.
(§8) Different naked STING agonisst and PD-L1-targeted small molecule-STING agonist conjugates were added to CD11b^+ monocytes cultures isolated from healthy donor blood or lung cancer patients' pleural effusions. Culture supernatants were collected 20 hours later and IFNβ production were determined using MSD singleplex assay.

[6] = test system: IFNβ production in CD11b+ monocytes; test: IFN-beta induction in CD11b+ monocytes from lung cancer pleural effusions; assay type: cell-based, human; conditions: CD11b+ monocyte cultures, lung cancer pleural effusion, 20 hours; read-out: EC50 for IFNβ induction, Cancer patient
Experimental: as §7, §8

[7] = biological target: T1, PD-L1; test: Direct method for PD-L1 internalization in CHO-PD-L1 cells; assay type: cell-based; conditions: 40 nM pHrodo-labelled antibody, 5 to 16 hours, versus IgG control
Experimental: Endocytosis or internalization of PD-L1 was measured by two different methods, one direct and the other indirect. In the direct method, an anti PD-L1 antibody labeled with a pH sensitive fluorophore is incubated with PD-L1 expressing cells. Upon internalization and trafficking of the antibody-PD-L1 complex to low pH endosomes, fluorescence is emitted. In the indirect method, cell surface PD-L1 is measured using an anti PD-L1 antibody after incubation with a compound to determine remaining, non-internalized receptor.
For the direct measurement, biotinylated anti-PD-L1 antibody (BPS Biosciences) or Atezolizumab, biotinylated with a 20-fold excess of biotin using the EZ-Link™ Sulfo-NHS-LC-Biotin reagents (ThermoFisher), were labeled with pHrodo™ Red Avidin (Life Technologies) conjugate. Equimolar solutions of the antibody and pHrodo™ Red avidin (4.2 uM each) were incubated on ice for 2 hours in the dark in a buffer composed of 40 mM Tris-HCl, pH 8.0, 110 mM NaCl, 2.2 mM KCl, 20% glycerol, and 1% bovine serum albumin The mixture was centrifuged for 1 minute at 1000 rpm, and the clarified supernatant was used in subsequent assays. […] The cells were analyzed by flow cytometry, and internalized antibody-receptor complex was detected using a C6 Accuri Flow Cytometer (excitation with […] and emission collected with a 585/40 bandpass filter).

[8] = high PD-L1 cells, read-out: IRF Activation EC50 (nM), High PD-L1
[9] = no competition, read-out: IRF Activation EC50 (nM), No competition
[10] = read-out: IRF Activation EC50 (nM), With compound P27 (1 μM), competition with compound P27 1 μM

Compound	EC50 [1, 8] [nM]	EC50 [1, 9] [nM]	EC50 [1, 10] [nM]	Potency shift [1]	EC50 [2] [nM]	IC50 [3] [µM]	IC50 [4] [µM]	EC50 [5] [µM]	EC50 [6] [µM]	PD-L1 internalization (direct method) [7]
CCn1nc(C)cc1C(=O)Nc1nc2cc(C(N)=O)cc(OC)c2n1C/C=C/Cn1c(NC(=O)c2cc(C)nn2CC)nc2cc(C(N)=O)cc(OCCCNC(=O)CCNC(=O)OCCSSC[C@H](NC(=O)[C@H](CC(=O)O)NC(=O)[C@H](CC(=O)O)NC(=O)[C@H](CCCNC(=N)N)NC(=O)[C@H](CC(=O)O)NC(=O)CCCN3CCc4c(nc(C(=O)Nc5cccc(-c6cccc(NC(=O)c7nc8c(n7C)CCN(CCCC(=O)O)C8)c6Cl)c5Cl)n4C)C3)C(=O)O)c21 [Example 5]	< 50	< 50	200 to 1000	>20	200 to 1000	< 0.05	> 1			
CCn1nc(C)cc1C(=O)Nc1nc2cc(C(N)=O)cc(OCCCNC(=O)[C@H](CC(=O)O)NC(=O)[C@H](CC(=O)O)NC(=O)[C@H](CCCNC(=N)N)NC(=O)[C@H](CC(=O)O)NC(=O)CCCN3CCc4c(nc(C(=O)Nc5cccc(-c6cccc(NC(=O)c7nc8c(n7C)CCN(CCCC(=O)O)C8)c6Cl)c5Cl)n4C)C3)c2n1C/C=C/Cn1c2nc(-c3cc(C)nn3CC)ncc2c2cc(C(N)=O)cc(OC)c21 [Example 7]	< 50				50 to 200	< 0.05		2.01 ± 0.308	0.643	
Atezolizumab										dos not cause PD-L1 internalization
CCn1nc(C)cc1C(=O)Nc1nc2cc(C(N)=O)cc(OC)c2n1C/C=C/Cn1c(NC(=O)c2cc(C)nn2CC)nc2cc(C(N)=O)cc(OCCCNC(=O)CCNC(=O)OCc3ccc(NC(=O)[C@H](CCCNC(N)=O)NC(=O)[C@@H](NC(=O)CCCN4CCc5c(nc(C(=O)Nc6cccc(-c7cccc(NC(=O)c8nc9c(n8C)CCN(CCCC(=O)O)C9)c7Cl)c6Cl)n5C)C4)C(C)C)cc3)c21 [Example 2]	< 50	< 50	50 to 200	>20	50 to 200	< 0.05	> 1			
CCn1nc(C)cc1C(=O)Nc1nc2cc(C(N)=O)cc(OC)c2n1C/C=C/Cn1c(NC(=O)c2cc(C)nn2CC)nc2cc(C(N)=O)cc(OCCCNC(=O)[C@H](CC(=O)O)NC(=O)[C@H](CC(=O)O)NC(=O)[C@H](CCCNC(=N)N)NC(=O)[C@H](CC(=O)O)NC(=O)CCCN3CCc4c(nc(C(=O)Nc5cccc(-c6cccc(NC(=O)c7nc8c(n7C)CCN(CCCC(=O)O)C8)c6Cl)c5Cl)n4C)C3)c21 [Example 1]	< 50	< 50	200 to 1000	>100	200 to 1000	< 0.05	> 1	5.03 ± 1.26	0.406	
